The results in this text go back to patent publication US11590139B2, “Substituted aminopurine compounds, compositions thereof, and methods of treatment therewith” (Signal Pharmaceuticals, LLC, priority 2014, dated 2023).

The subject of one assay is Lox-IMVI melanoma cell line. The assay is described as follows: Lox-IMVI anti-proliferative assay (growth inhibition, Cell Titer-Glo). Type of assay: cell-based, human. The settings on record: Homo sapiens; IC50 activity level in the cell-based Lox-IMVI anti-proliferative assay; read-out: Activity. The essentials: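 Lox-IMVI cells in RPMI+10% FBS exposed 72 h at 37 °C to 10-point, 3-fold dilutions (0.5 nM–10 μM; 0.2% DMSO final), in duplicate. Viability by Cell Titer-Glo luminescence, with a t0 cell-number reading; data as % of DMSO control; IC50 from a four-parameter logistic fit.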
`NC(=O)[C@H]1CC[C@@H](n2c(Nc3ccc(Cl)c(Cl)c3Cl)nc3cnc(NC4CCOCC4)nc32)CC1` [Example 73, (1s,4s)-4-(2-(tetrahydro-2H-pyran-4-ylamino)-8-(2,3,4-trichlorophenylamino)-9H-purin-9-yl)cyclohexanecarboxamide]: the IC50 was above 1 µM.
On the same count and under the same terms, next, `NC(=O)[C@H]1CC[C@@H](n2c(Nc3c(F)ccc(Cl)c3F)nc3cnc(N[C@H]4CCC[C@@H](O)C4)nc32)CC1` [Example 377, (1R,4s)-4-(8-(3-chloro-2,6-difluorophenylamino)-2-((1S,3R)-3-hydroxycyclohexylamino)-9H-purin-9-yl)cyclohexanecarboxamide]: above 1 µM; `NC(=O)[C@H]1CC[C@@H](n2c(Nc3c(Cl)cc(Cl)cc3Cl)nc3cnc(N[C@@H]4CC[C@H](O)C4)nc32)CC1` [Example 333, (1S,4s)-4-(2-((1R,3S)-3-hydroxycyclopentylamino)-8-(2,4,6-trichlorophenylamino)-9H-purin-9-yl)cyclohexanecarboxamide]: 0.5 to 1 µM.
Still for that read-out and setting: with `Cc1cc(F)cc(F)c1Nc1nc2cnc(NC3CCOCC3)nc2n1[C@H]1CC[C@@H](C(N)=O)CC1` [Example 86, (1s,4s)-4-(8-(2,4-difluoro-6-methylphenylamino)-2-(tetrahydro-2H-pyran-4-ylamino)-9H-purin-9-yl)cyclohexanecarboxamide] the figure was above 1 µM; with `NC(=O)[C@H]1CC[C@@H](n2c(Nc3c(F)cccc3F)nc3cnc(N[C@H]4CCOC[C@@H]4F)nc32)CC1` [Example 247, (1R,4s)-4-(8-(2,6-difluorophenylamino)-2-((3R,4S)-3-fluorotetrahydro-2H-pyran-4-ylamino)-9H-purin-9-yl)cyclohexanecarboxamide], above 1 µM; with `NC(=O)[C@H]1CC[C@@H](n2c(Nc3c(F)cc(F)cc3F)nc3cnc(NC4CC(F)(F)C4)nc32)CC1` [Example 226, (1s,4s)-4-(2-(3,3-difluorocyclobutylamino)-8-(2,4,6-trifluorophenylamino)-9H-purin-9-yl)cyclohexanecarboxamide], above 1 µM.
The same measure, in the same setting: next, `NC(=O)[C@H]1CC[C@@H](n2c(Nc3c(Cl)cc(Cl)cc3Cl)nc3cnc(N[C@@H]4CCOC[C@@H]4F)nc32)CC1` [Example 302, (1S,4s)-4-(2-((3R,4R)-3-fluorotetrahydro-2H-pyran-4-ylamino)-8-(2,4,6-trichlorophenylamino)-9H-purin-9-yl)cyclohexanecarboxamide]: 0.5 to 1 µM; `NC(=O)[C@H]1CC[C@@H](n2c(Nc3c(F)cc(Cl)cc3F)nc3cnc(NC4CCC(F)(F)CC4)nc32)CC1` [Example 200, (1s,4s)-4-(8-(4-chloro-2,6-difluorophenylamino)-2-(4,4-difluorocyclohexylamino)-9H-purin-9-yl)cyclohexanecarboxamide]: 0.25 to 0.5 µM.
For `C[C@@H](CO)Nc1ncc2nc(Nc3cc(Cl)ccc3F)n([C@H]3CC[C@@H](C(N)=O)CC3)c2n1` [Example 171, (1R,4s)-4-(8-(5-chloro-2-fluorophenylamino)-2-((S)-1-hydroxypropan-2-ylamino)-9H-purin-9-yl)cyclohexanecarboxamide], the IC50 was above 1 µM.
Same read-out and setting: next, `CC(C)(C)OC(=O)N1CC[C@H](Nc2ncc3nc(Nc4c(F)cccc4F)n([C@H]4CC[C@@H](C(N)=O)CC4)c3n2)[C@H](F)C1` [Example 128, (3R,4S)-tert-butyl 4-(9-((1s,4R)-4-carbamoylcyclohexyl)-8-(2,6-difluorophenylamino)-9H-purin-2-ylamino)-3-fluoropiperidine-1-carboxylate]: above 1 µM.
Still for that read-out and setting: with `NC(=O)[C@H]1CC[C@@H](n2c(Nc3c(Cl)cccc3Cl)nc3cnc(N[C@H]4C[C@H](O)C4)nc32)CC1` [Example 280, (1s,4s)-4-(8-(2,6-dichlorophenylamino)-2-((1r,3r)-3-hydroxycyclobutylamino)-9H-purin-9-yl)cyclohexanecarboxamide] the figure was above 1 µM.
The same measure, in the same setting: with `NC(=O)[C@H]1CC[C@@H](n2c(Nc3c(F)cc(Cl)cc3F)nc3cnc(N[C@H]4CC[C@H](O)C4)nc32)CC1` [Example 329, (1R,4s)-4-(8-(4-chloro-2,6-difluorophenylamino)-2-((1S,3S)-3-hydroxycyclopentylamino)-9H-purin-9-yl)cyclohexanecarboxamide] the figure was 0.5 to 1 µM; with `NC(=O)[C@H]1CC[C@@H](n2c(Nc3c(F)cc(F)cc3F)nc3cnc(NC4COCC4O)nc32)CC1` (stereo partly drawn) [Example 178, (1s,4s)-4-(2-(4-hydroxytetrahydrofuran-3-ylamino)-8-(2,4,6-trifluorophenylamino)-9H-purin-9-yl)cyclohexanecarboxamide], above 1 µM; with `CC[C@@H](CO)Nc1ncc2nc(Nc3c(F)ccc(F)c3F)n([C@H]3CC[C@@H](C(N)=O)CC3)c2n1` [Example 148, (1R,4s)-4-(2-((S)-1-hydroxybutan-2-ylamino)-8-(2,3,6-trifluorophenylamino)-9H-purin-9-yl)cyclohexanecarboxamide], above 1 µM.

The assay is the same for the next values; noted with them: Homo sapiens; Lox-IMVI anti-proliferative assay, IC50 activity level; read-out: Activity.
For `C[C@]1(C(N)=O)CC[C@@H](n2c(Nc3c(Cl)cc(OC(F)(F)F)cc3Cl)nc3cnc(NC4CCC4)nc32)CC1` [Example 598, (1s,4s)-4-(2-(cyclobutylamino)-8-(2,6-dichloro-4-(trifluoromethoxy)phenylamino)-9H-purin-9-yl)-1-methylcyclohexanecarboxamide], the IC50 was above 1 µM.
Same read-out and setting: with `C[C@@H]1COCC[C@@H]1Nc1ncc2nc(Nc3c(F)cc(Cl)cc3Cl)n([C@H]3CC[C@@H](C(N)=O)CC3)c2n1` [Example 506, (1R,4s)-4-(8-(2,4-dichloro-6-fluorophenylamino)-2-((3S,4S)-3-methyltetrahydro-2H-pyran-4-ylamino)-9H-purin-9-yl)cyclohexanecarboxamide] the figure was 0.25 to 0.5 µM; with `NC(=O)[C@H]1CC[C@@H](n2c(Nc3c(Cl)cc(Cl)cc3Cl)nc3cnc(N[C@@H]4CCCC[C@H](O)C4)nc32)CC1` [Example 439, (1S,4s)-4-(2-((1R,3S)-3-hydroxycycloheptylamino)-8-(2,4,6-trichlorophenylamino)-9H-purin-9-yl)cyclohexanecarboxamide], above 1 µM.
Take `NC(=O)[C@H]1CC[C@@H](n2c(Nc3c(F)cc(Cl)cc3F)nc3cnc(N[C@@H]4CCCC[C@H](O)C4)nc32)CC1` [Example 438, (1S,4s)-4-(8-(4-chloro-2,6-difluorophenylamino)-2-((1R,3S)-3-hydroxycycloheptylamino)-9H-purin-9-yl)cyclohexanecarboxamide]: the IC50 was above 1 µM.

Still in this assay, the particulars now being: Homo sapiens; Lox-IMVI melanoma cell line, anti-proliferative assay; read-out: Activity (IC50 activity level).
Turning to `N#Cc1cc(Cl)c(Nc2nc3cnc(N[C@@H]4CCC(F)(F)C4)nc3n2[C@H]2CC[C@@H](C(N)=O)CC2)c(Cl)c1` [Example 699, (1S,4s)-4-(8-(2,6-dichloro-4-cyanophenylamino)-2-((R)-3,3-difluorocyclopentylamino)-9H-purin-9-yl)cyclohexanecarboxamide], the IC50 fell in the range of 0.25 to 0.5 µM.
On the same count and under the same terms, with `C[C@@H]1COCC[C@H]1Nc1ncc2nc(Nc3c(F)cc(F)cc3Cl)n([C@H]3CC[C@@H](C(N)=O)CC3)c2n1` [Example 723, (1S,4s)-4-(8-(2-chloro-4,6-difluorophenylamino)-2-((3S,4R)-3-methyltetrahydro-2H-pyran-4-ylamino)-9H-purin-9-yl)cyclohexanecarboxamide] the figure was below 0.25 µM; with `C[C@]1(C(N)=O)CC[C@@H](n2c(Nc3c(F)cc(F)cc3F)nc3cnc(NC4CCC4)nc32)CC1` [Example 607, (1s,4s)-4-(2-(cyclobutylamino)-8-(2,4,6-trifluorophenylamino)-9H-purin-9-yl)-1-methylcyclohexanecarboxamide], below 0.25 µM.
Regarding `CC1(C)COCC[C@H]1Nc1ncc2nc(Nc3c(F)cc(Cl)cc3Cl)n([C@H]3CC[C@@H](C(N)=O)CC3)c2n1` [Example 764, (1S,4s)-4-(8-(2,4-dichloro-6-fluorophenylamino)-2-((R)-3,3-dimethyltetrahydro-2H-pyran-4-ylamino)-9H-purin-9-yl)cyclohexanecarboxamide], the IC50 is 0.5 to 1 µM.
The same measure, in the same setting: next, `N#Cc1cc(Cl)c(Nc2nc3cnc(NC4CCC(N5C(=O)CCC5=O)CC4)nc3n2[C@H]2CC[C@@H](C(N)=O)CC2)c(Cl)c1` (stereo partly drawn) [Example 668, (1s,4s)-4-(8-(2,6-dichloro-4-cyanophenylamino)-2-(4-(2,5-dioxopyrrolidin-1-yl)cyclohexylamino)-9H-purin-9-yl)cyclohexanecarboxamide]: above 1 µM; `NC(=O)[C@H]1CC[C@@H](n2c(Nc3c(F)cc(Cl)cc3Cl)nc3cnc(NC[C@@H]4CCCC[C@H]4O)nc32)CC1` [Example 662, (1R,4s)-4-(8-(2,4-dichloro-6-fluorophenylamino)-2-(((1S,2R)-2-hydroxycyclohexyl)methylamino)-9H-purin-9-yl)cyclohexanecarboxamide]: above 1 µM; `NC(=O)[C@H]1CC[C@@H](n2c(Nc3c(Cl)cc(F)cc3Cl)nc3cnc(NC[C@@H]4CCCC[C@@H]4O)nc32)CC1` [Example 656, (1R,4s)-4-(8-(2,6-dichloro-4-fluorophenylamino)-2-(((1S,2S)-2-hydroxycyclohexyl)methylamino)-9H-purin-9-yl)cyclohexanecarboxamide]: above 1 µM.
Still for that read-out and setting: with `NC(=O)[C@H]1CC[C@@H](n2c(Nc3c(Cl)cc(F)cc3Cl)nc3cnc(N[C@@H]4CCCN(c5ccccc5)C4)nc32)CC1` [Example 749, (1S,4s)-4-(8-(2,6-dichloro-4-fluorophenylamino)-2-((R)-1-phenylpiperidin-3-ylamino)-9H-purin-9-yl)cyclohexanecarboxamide] the figure was above 1 µM.
Same read-out and setting: next, `C[C@]1(C(N)=O)CC[C@@H](n2c(Nc3c(F)cc(F)cc3Cl)nc3cnc(N[C@H]4CC[C@H](O)C4)nc32)CC1` [Example 644, (1R,4s)-4-(8-(2-chloro-4,6-difluorophenylamino)-2-((1S,3S)-3-hydroxycyclopentylamino)-9H-purin-9-yl)-1-methylcyclohexanecarboxamide]: 0.25 to 0.5 µM.
